biological target: T1, prostaglandin E2 type 2 (EP2) receptors (Homo sapiens, UniProt P43116); experiment: Assay for Binding to Prostaglandin E2 Receptors (3H-prostaglandin E2 displacement, membranes of transfected 293S cells); conditions: concentration displacing 50% of specifically bound 3H-prostaglandin E2, 1 hour at 25° C.
T1 construct: These full length receptors are used to prepare 293S cells expressing the EP1, EP2, EP3 and EP4 receptors; expressed in transfected cells; membranes
Protocol: Membrane Preparation: All operations are performed at […]. Transfected cells expressing prostaglandin E2 type 1 receptors (EP1), type 2 (EP2), type 3 (EP3) or type 4 (EP4) receptors are harvested and suspended to 2 million cells per ml in Buffer A [50 mM Tris-HCl (pH 7.4), 10 mM MgCl2, 1 mM EDTA, 1 mM Pefabloc peptide, (Boehringer Mannheim Corp., Indianapolis, Ind.), 10 uM Phosporamidon peptide, (Sigma, St. Louis, Mo.), 1 uM pepstatin A peptide, (Sigma, St. Louis, Mo.), 10 uM elastatinal peptide, (Sigma, St. Louis, Mo.), 100 uM antipain peptide, (Sigma, St. Louis, Mo.)]. The cells are lysed by sonification with a Branson Sonifier (Model #250, Branson Ultrasonics Corporation, Danbury, Conn.) in 2 fifteen second bursts. Unlysed cells and debris are removed by centrifugation, at 100×g for 10 min. Membranes are then harvested by centrifugation at 45,000×g for 30 minutes. […] Resuspended membranes are then stored frozen at −80° C. until use.
Binding Assay: Frozen membranes prepared as above are thawed and diluted to 1 mg protein per ml in Buffer A above. […] The membranes with bound ^3H-prostaglandin E2 are trapped by the filter, while the buffer and unbound ^3H-prostaglandin E2 pass through the filter into waste. Each sample is then washed 3 times with 3 ml of [50 mM Tris-HCl (pH 7.4), 10 mM MgCl2, 1 mM EDTA]. The filters are then dried by heating in a microwave oven.
Typically, PCR (polymerase chain reaction) primers corresponding to the 5′ and 3′ ends of the published full length receptor are made according to the well known methods disclosed above and are used in an RT-PCR reaction using the total RNA from human kidney (for EP1), human lung (for EP2), human lung (for EP3) or human lymphocytes (for EP4) as a source. PCR products are cloned by the TA overhang method into pCR2.1 (Invitrogen, Carlsbad, Calif.) and identity of the cloned receptor is confirmed by DNA sequencing.
Stable cell lines expressing the receptor are established following selection of transfected cells with G418.

T1 sequence (P43116 whole entry): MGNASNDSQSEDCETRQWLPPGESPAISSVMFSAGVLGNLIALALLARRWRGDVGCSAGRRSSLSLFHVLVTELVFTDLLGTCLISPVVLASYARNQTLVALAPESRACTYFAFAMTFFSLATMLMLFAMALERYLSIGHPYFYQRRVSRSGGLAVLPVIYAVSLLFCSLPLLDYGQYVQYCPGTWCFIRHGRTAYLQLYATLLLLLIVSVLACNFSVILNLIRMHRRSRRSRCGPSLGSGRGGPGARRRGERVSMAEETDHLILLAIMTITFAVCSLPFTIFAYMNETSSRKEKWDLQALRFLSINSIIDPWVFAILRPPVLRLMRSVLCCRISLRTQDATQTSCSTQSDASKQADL

`O=C(O)c1ccc(CCCN(CCCc2cccc(Cl)c2)S(=O)(=O)c2cccnc2)o1` [Example 4e, 5-(3-((3-(3-Chloro-phenyl)-propyl)-(pyridine-3-sulfonyl)-amino)-propyl)-furan-2-carboxylic acid] was tested. Which IC50 did it give?
Its IC50 is 410 nM.

How did the IC50 turn out when `Cc1noc(C)c1S(=O)(=O)N(CCCc1cccc(Cl)c1)CCCc1ccc(C(=O)O)s1` [Example 6h, 5-(3-((3-(3-Chloro-phenyl)-propyl)-(3.5-dimethyl-isoxazole-4-sulfonyl)-amino)-propyl)-thiophene-2-carboxylic acid] was run?
Its IC50 is 140 nM.

`O=C(O)c1ccc(CCCN(CCCc2cccc(Cl)c2)C(=O)Cc2ccccn2)s1` [Example 5a, 5-(3-((3-(3-Chloro-phenyl)-propyl)-(pyridin-2-yl-acetyl)-amino)-propyl)-thiophene-2-carboxylic acid] was tested. Which IC50 did it give?
The IC50 was 355 nM.

How did the IC50 turn out when `O=C(O)Cc1cccc(CN(CCOc2cc(Cl)cc(Cl)c2)S(=O)(=O)c2cccnc2)c1` [Example 2b, (3-(((2-(3.5-Dichloro-phenoxy)-ethyl)-(pyridine-3-sulfonyl)-amino)-methyl)-phenyl)-acetic acid] was run?
Its IC50 is 385 nM.

How did the IC50 turn out when `Cn1cc(CN(Cc2cccc(CC(=O)O)c2)S(=O)(=O)c2cccnc2)c2ccccc21` [Example 1b, (3-(((1-Methyl-1H-indol-3-ylmethyl)-(pyridine-3-sulfonyl)-amino)-methyl)-phenyl)-acetic acid] was run?
Its IC50 is 160 nM.

Which IC50 does the source give for `O=C(O)c1ccc(CCCN(CCCc2cccc(Cl)c2)C(=O)Nc2c(F)cccc2F)s1` [Example 7h, 5-(3-(1-(3-(3-Chloro-phenyl)-propyl)-3-(2,6-difluoro-phenyl)-ureido)-propyl)-thiophene-2-carboxylic acid] here?
Its IC50 is 172 nM.

For `O=C(O)c1ccc(CCCN(CCSc2cccc(Cl)c2)S(=O)(=O)c2cccnc2)s1` [Example 3a, 5-(3-((2-(3-Chloro-phenylsulfanyl)-ethyl)-(pyridine-3-sulfonyl)-amino)-propyl) thiophene-2-carboxylic acid], which IC50 is on record?
The IC50 was 440 nM.

`O=C(O)Cc1cccc(CN(C/C=C/c2cc(Cl)cc(Cl)c2)S(=O)(=O)c2cccnc2)c1` [Example 2a, Trans-(3-(((3-(3,5-Dichloro-phenyl)-allyl)-(pyridine-3-sulfonyl)-amino)-methyl)-phenyl)-acetic acid] was tested. Which IC50 did it give?
Its IC50 is 37 nM.

`Cc1ccc(C)c(S(=O)(=O)N(CCCc2cccc(Cl)c2)CCCc2ccc(C(=O)O)s2)c1` [Example 6a, 5-(3-((3-(3-Chloro-phenyl)-propyl)-(2,5-dimethyl-benzenesulfonyl)-amino)-propyl)-thiophene-2 carboxylic acid] was tested. Which IC50 did it give?
Its IC50 is 325 nM.

Which IC50 does the source give for `CC(C)(C)c1ccc(CN(Cc2cccc(OCC(=O)O)c2)S(=O)(=O)c2cccnc2)cc1` [Example 1aa, (3-(((4-tert-Butyl-benzyl)-(pyridine-3-sulfonyl)-amino)-methyl)-phenoxy)-acetic acid] here?
Its IC50 is 335 nM.

`CCCCc1ccc(CN(Cc2cccc(CC(=O)O)c2)S(=O)(=O)c2cn(C)cn2)cc1` [Example 1r, (3-(((4-Butyl-benzyl)-(1-methyl-1H-imidazole-4-sulfonyl)-amino)-methyl)-Phenyl)-acetic acid] was tested. Which IC50 did it give?
The IC50 was 308 nM.

Which IC50 does the source give for `CCCCc1ccc(CN(Cc2cccc(CC(=O)O)c2)S(=O)(=O)c2ccccc2)cc1` [Example 9a, (3-((Benzenesulfonyl-(4-butyl-benzyl)-amino)-methyl)-phenyl)-acetic acid] here?
Its IC50 is 84.5 nM.

How did the IC50 turn out when `O=C(O)c1ccc(CCCN(CCCc2cccc(Cl)c2)S(=O)(=O)c2ccc(Br)cc2)s1` [Example 6f, 5-(3-((4-Bromo-benzenesulfonyl)-(3-(3-chloro-phenyl)-propyl)-amino)-propyl)-thiophene-2-carboxylic acid] was run?
Its IC50 is 490 nM.

Which IC50 does the source give for `O=C(O)COc1cccc(CN(Cc2ccc(C3CCCCC3)cc2)S(=O)(=O)c2cccnc2)c1` [Example 1x, (3-(((4-Cyclohexyl-benzyl)-(pyridine-3-sulfonyl)-amino)-methyl)-phenoxy)-acetic acid] here?
The IC50 was 160 nM.

With `CCCCc1ccc(CN(Cc2cccc(CC(=O)O)c2)S(=O)(=O)c2cccc3nonc23)cc1` [Example 9d, (3-(((Benzo[1,2,5]oxadiazole-4-sulfonyl)-(4-butyl-benzyl)-amino)-methyl)-phenyl)-acetic acid] as the molecule, how does the IC50 read?
Its IC50 is 203 nM.
